Where no end group is shown, it is not given here.
Tests used:
[1] = system: P. aeruginosa 14 strain (PA14), ancestor strain; type: cell-based, Pseudomonas aeruginosa; settings: ancestral strain PA14; MH broth, 5 × 10^5 CFU/ml, 96-well serial dilution, 24 h, inhibition of growth by at least 90% (OD595); 3 replicate lines per peptide
Experimental: MIC values were determined following a standard serial dilution protocol, as described elsewhere. Briefly, PA14 cells were grown overnight in MH broth, at 37°C and 200 rpm. Subsequently, cells were diluted 1:100 in MH broth and grown until reaching an optical density at 595 nm (OD595) of 0.1. Then, 100 μl of 5 × 10^5 CFU/ml were inoculated into each well in 96-well plates that contained a serial dilution of AMPs or RPMs. Each plate contained 3 replicate lines per peptide. The MICs were defined as the lowest concentration at which there was inhibition of bacterial growth by at least 90%, after 24 h, by measuring the OD595.
The MIC was determined on 3 occasions: (1) prior to the experiment, to determine the concentration of our focal peptides to be used at the start of the experimental evolution (i.e., MIC of the ancestor strain); (2) at the end of the experimental evolution, detect an increase, or decrease, in the resistance of the experimentally evolved strains to our peptides of interest; (3) to evaluate whether the experimental evolution of a certain treatment was accompanied by an increase, or decrease, in resistance or sensitivity to another antimicrobial (i.e., cross-resistance or collateral-sensitivity).

[2] = system: PA14 strains evolved in the presence of an AMP/RPM; assay: Fitness cost of evolved strains (growth curves in the absence of AMPs); type: cell-based, Pseudomonas aeruginosa; settings: growth in MH broth without AMPs, OD595 every 15 min for 24 h, normalised to ancestor; n = 6
Experimental: Bacterial cells were grown overnight in MH broth and then diluted to an OD595 of 0.1. For each strain, 200 μl of culture were transferred into 96-well plates, with 3 technical replicates. Optical density (OD595) was measured every 15 min for 24 h using an Epoch 2 microplate reader (BioTek). Lag time and Vmax were assessed using the plate reader software (Gen5). The values measured in the experimentally evolved strains were divided by the values of their respective ancestors and expressed as lag time fold-change and Vmax fold-change (see “Statistical analysis” section).
Similarly, we normalised both fitness readouts duration of the lag phase (lag time) and maximum slope of the bacterial growth curve (Vmax) to the readouts of the ancestor of the given evolved strain by dividing the values of the evolved strains to that of their respective ancestors. The resulting variable is a fold-change in Vmax and lag time during experimental evolution: Vmax fold-change and lag time fold-change.

Row | Substance | MIC [1] | Lag time fold-change of evolved strains compared to control strains [2]
1 | KIAKRIWKILRRR [PA-13] | 25 µg/mL | –
2 | p-KKKFK [SLM3, specific palmitic acid-modified 5-mer peptide, composed of L-Lysine and/or L-Phenylalanine, part of a 32-peptide library] | – | significantly increased lag times

From publication PMC11218975, “The evolution of antimicrobial peptide resistance in Pseudomonas aeruginosa is severely constrained by random peptide mixtures” (PLOS Biology, 2024)
